Measurements from ChEMBL document CHEMBL3991949, “Inhibition of DCPS” (2009).
One block for each molecule: values may come before it. Active and inactive are the calls of the source. No cut-off for these calls is given here.

What was measured:
m7GpppX diphosphatase [1] = target: T1, m7GpppX diphosphatase (Mus musculus, UniProt Q9DAR7); test: Inhibition of DcpS in human SMN2 promoter driven mouse NSC-34 cells assessed as increase in SMN2 mRNA expression after 18 hrs by RT-PCR analysis
T1 sequence (Q9DAR7 whole entry): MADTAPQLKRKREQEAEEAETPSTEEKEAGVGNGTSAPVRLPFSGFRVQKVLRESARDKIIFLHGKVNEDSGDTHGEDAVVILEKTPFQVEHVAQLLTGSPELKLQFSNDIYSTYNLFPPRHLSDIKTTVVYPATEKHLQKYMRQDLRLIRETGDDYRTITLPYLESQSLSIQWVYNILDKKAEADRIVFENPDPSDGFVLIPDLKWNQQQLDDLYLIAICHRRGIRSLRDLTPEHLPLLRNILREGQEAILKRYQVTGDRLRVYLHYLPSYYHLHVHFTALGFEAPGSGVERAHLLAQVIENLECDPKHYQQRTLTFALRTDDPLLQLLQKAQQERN

[2] = target: T2, m7GpppX diphosphatase (Homo sapiens) (UniProt Q96C86); test: Binding affinity to recombinant human N-terminal GST-tagged DcpS expressed in baculovirus-infected Sf9 insect cells at 100 nM after 90 mins in presence of [125I]-streptavidin by microarray assay; details: tested as the 125I-labelled form
T2 sequence (whole entry): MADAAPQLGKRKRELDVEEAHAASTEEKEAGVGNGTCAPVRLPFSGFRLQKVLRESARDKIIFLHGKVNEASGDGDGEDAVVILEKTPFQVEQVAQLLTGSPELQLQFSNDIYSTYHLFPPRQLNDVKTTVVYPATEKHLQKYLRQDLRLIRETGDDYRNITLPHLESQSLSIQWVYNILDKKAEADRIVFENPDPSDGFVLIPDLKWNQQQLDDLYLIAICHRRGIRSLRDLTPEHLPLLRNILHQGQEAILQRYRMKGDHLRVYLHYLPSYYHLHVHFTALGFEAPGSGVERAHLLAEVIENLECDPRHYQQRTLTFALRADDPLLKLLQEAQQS

m7GpppX diphosphatase [3] = target: T1, m7GpppX diphosphatase; test: Inhibition of DcpS in human SMN2 promoter driven mouse NSC-34 cell lysate assessed as increase in SMN2 expression after 18 hrs by beta-lactamase reporter gene assay
m7GpppX diphosphatase [4] = target: T3, m7GpppX diphosphatase (Homo sapiens, UniProt Q96C86); test: Inhibition of recombinant flag-tagged DcpS (unknown origin) decapping activity assessed as reduction in hydrolysis of m7GpppG to m7G using unlabeled cap structure as substrate after 30 secs by PEI cellulose thin-layer chromatographic assay
T3 sequence (Q96C86 whole entry): T2 sequence (whole entry)

[5] = target: T2, m7GpppX diphosphatase (Homo sapiens); test: Inhibition of recombinant flag-tagged DcpS (unknown origin) decapping activity assessed as hydrolysis of m7GpppG to m7G at 8 nM using unlabeled cap structure as substrate after 30 secs by PEI cellulose thin-layer chromatographic assay (reference value: 62%); parameters: scale not given: the % may be the effect or the level left
[6] = target: T2, m7GpppX diphosphatase (Homo sapiens); test: Inhibition of recombinant flag-tagged DcpS (unknown origin) decapping activity assessed as hydrolysis of m7GpppG to m7G at 1.6 nM using unlabeled cap structure as substrate after 30 secs by PEI cellulose thin-layer chromatographic assay (reference value: 62%); parameters: scale not given: the % may be the effect or the level left
[7] = target: T2, m7GpppX diphosphatase (Homo sapiens); test: Inhibition of recombinant flag-tagged DcpS (unknown origin) decapping activity assessed as hydrolysis of m7GpppG to m7G at 40 nM using unlabeled cap structure as substrate after 30 secs by PEI cellulose thin-layer chromatographic assay (reference value: 62%); parameters: scale not given: the % may be the effect or the level left
[8] = target: T2, m7GpppX diphosphatase (Homo sapiens); test: Inhibition of recombinant flag-tagged DcpS (unknown origin) decapping activity assessed as hydrolysis of m7GpppG to m7G at 200 nM using unlabeled cap structure as substrate after 30 secs by PEI cellulose thin-layer chromatographic assay (reference value: 62%); parameters: scale not given: the % may be the effect or the level left
Mus musculus [9] = test: Increase in SMN protein levels in spinal cord extracts isolated from SMNdelta7 SMA mouse model at 3 mg/kg/day administered orally beginning at PND04 for 5 days by immunoblot analysis relative to SMNdelta7 carrier mouse; type: functional
Mus musculus [10] = test: Effect on life span of SMNdelta7 SMA mouse model assessed as survival at 3 mg/kg/day administered orally on onset of motor neuron loss at PND09, continued for duration of their lives by Kaplan-Meier plot method (reference value: 14 +/- 0.4 day); type: functional
Mus musculus [11] = test: (§1) Increase in Smn promoter activity in forebrain extracts isolated from Smn knockout mouse containing LacZ:NeoR cassette inserted into mouse Smn exon 2A assessed as optimal effective dose administered orally beginning at PND04 for 5 days by beta-galactosidase light chemiluminescent reporter gene assay; type: functional
Brain [12] = test: Drug level in fetal brain extracts isolated from timed-pregnant SMNdelta7 carrier mouse prenatal dams administered orally beginning at embryonic day 11.5 for 5 days by LC-MS-MS analysis; type: ADME, tissue-based; details: in vivo, po, 120 h
Mus musculus [13] = test: Toxicity in SMNdelta7 carrier mouse assessed as adverse events at 0.1 to 30 mg/kg/day administered orally beginning at PND04 for 5 days; type: organism-based; details: in vivo, po, 120 h
Mus musculus [14] = test: Increase in life span of timed-pregnant SMNdelta7 carrier mouse prenatal dams at 3 mg/kg/day administered orally beginning at embryonic day 11.5 continued through birth and once the pups were born; type: functional
Mus musculus [15] = test: Induction in delay of onset of body mass loss in timed-pregnant SMNdelta7 carrier mouse prenatal dams at 3 mg/kg/day administered orally only during prenatal period; type: functional
Mus musculus [16] = test: Induction in delay of onset of body mass loss in timed-pregnant SMNdelta7 carrier mouse prenatal dams at 3 mg/kg/day administered orally beginning at embryonic day 11.5 continued through birth and once the pups were born; type: functional
Mus musculus [17] = test: Increase in life span of timed-pregnant SMNdelta7 carrier mouse prenatal dams at 3 mg/kg/day administered orally beginning at embryonic day 11.5 continued after birth (reference value: 13.3 +/- 0.6 day); type: functional
Mus musculus [18] = test: Induction in delay of onset of body mass loss in SMNdelta7 SMA mouse model at 3 mg/kg/day administered orally beginning at PND04, continued for duration of their lives by Kaplan-Meier plot method (reference value: 11.1 +/- 0.3 day); type: functional
Mus musculus [19] = test: Increase in life span of SMNdelta7 SMA mouse model at 3 mg/kg/day administered orally beginning at PND04, continued for duration of their lives by Kaplan-Meier plot method relative to untreated control; type: functional
Brain [20] = test: Drug uptake in brain of SMNdelta7 carrier mouse […] at 0.1 to 30 mg/kg/day administered orally beginning at PND04 for 5 days; type: ADME, organism-based; details: in vivo, po, 120 h
Mus musculus [21] = test: as §1, with “spinal cord” for “forebrain”; type: functional
Mus musculus [22] = test: Increase in SMN protein levels in spinal cord extracts isolated from SMNdelta7 SMA mouse model at 3 mg/kg/day administered orally beginning at PND04 for 5 days by immunoblot analysis; type: functional

EC50 (m7GpppX diphosphatase [1]): 108 nM
Compound: Cn1ccnc1CN1CCC(COc2cccc3nc(N)nc(N)c23)CC1

EC50 (m7GpppX diphosphatase [1]): 921 nM
Compound: Nc1nc(N)c2c(OCC3CCN(CC4CCNCC4)CC3)cccc2n1

Activity [2]: Active | EC50 (m7GpppX diphosphatase [3]): 36 nM
Compound: Nc1nc(N)c2c(OCC3CCN(C(=O)c4cccc(I)c4)CC3)cccc2n1

The remaining lines, values behind:

Compound: Nc1nc(N)c2c(OCC3CCN(CC(F)(F)F)CC3)cccc2n1
EC50 (m7GpppX diphosphatase [1]): 223 nM

Compound: C[n+]1cn([C@@H]2O[C@H](COP(=O)(O)OP(=O)([O-])OP(=O)(O)OC[C@H]3O[C@@H](n4cnc5c(=O)[nH]c(N)nc54)[C@H](O)[C@@H]3O)[C@@H](O)[C@H]2O)c2nc(N)[nH]c(=O)c21
IC50 (m7GpppX diphosphatase [4]): 30 nM

Compound: CC(=O)Nc1nc(CN2CCC(COc3cccc4nc(N)nc(N)c34)CC2)cs1
EC50 (m7GpppX diphosphatase [1]): 2540 nM

Compound: C[n+]1cn([C@@H]2O[C@H](COP(=O)(O)OP(=O)([O-])OP(=O)(O)OC[C@H]3O[C@@H](n4cnc5c(=O)[nH]c(N)nc54)[C@H](O)[C@@H]3O)[C@@H](O)[C@H]2O)c2nc(N)nc(O)c21
Activity [5]: 46% | Activity [6]: 55% | Activity [7]: 24% | Activity [8]: 7%

Compound: Nc1nc(N)c2c(OCC3CCN(Cc4ccccc4F)CC3)cccc2n1
Activity (Mus musculus [9]): 25% | Survival (Mus musculus [10]): 14.9 days | Activity (Mus musculus [11]): 3 mg/kg/day | Drug uptake (Brain [12]): Dose-dependent effect | Activity (Mus musculus [13]): Non-Toxic | Activity (Mus musculus [14]): 30% | Activity (Mus musculus [15]): 10% | Activity (Mus musculus [16]): 15% | Activity (Mus musculus [17]): 14.1 days | Activity (Mus musculus [18]): 12 days | Activity (Mus musculus [19]): 21% | Drug uptake (Brain [20]): Dose-dependent effect | Activity (Mus musculus [21]): 3 mg/kg/day | Activity (Mus musculus [22]): 70%

Compound: Nc1nc(N)c2c(OCC3CCN(c4ccccc4Cl)CC3)cccc2n1
EC50 (m7GpppX diphosphatase [1]): 795 nM
